Assay results reported in patent publication US10464922B2, “Metalloenzyme inhibitor compounds” (NQP 1598 LTD., priority 2015, dated 2019).
Values after ≈ are worked out from the molar mass of the structure shown.

Tests used:
[1] = tested on: Hedgehog signaling pathway Gli Reporter-NIH3T3 cells; assay: Gli luciferase reporter assay, Hedgehog signalling pathway activity; format: cell-based; conditions: mShh 1 μg/ml, 27 hours
Description: Hedgehog signaling pathway Gli Reporter-NIH3T3 cells were cultured in DMEM medium with 10% Calf serum, 1% Penn-strep, 500 μg/ml of Geneticin.
To perform the Gli luciferase reporter assay, Gli Reporter—NIH3T3 cells were seeded at 25,000 cells per well into white clear-bottom 96-well microplate in 100 μl of growth medium. Cells were incubated at 37° C., and 5% CO2 for overnight. The next day, remove the medium from wells and add 45 μl of diluted inhibitor in assay medium (Opti-MEM Reduced Serum Medium+0.5% calf serum+1% non-essential amino acids+1 mM Na-pyruvate+10 mM HEPES+1% Pen/Strep) per well. Incubate cells at 37° C. in a CO2 incubator for 2 hours. Then add 5 μl of diluted mShh in assay medium to wells (final [mShh]=1 μg/ml). Add 50 μl of assay medium to cell-free control wells. Cells were treated for 27 hours. After treatment, cells were lysed and luciferase assay was performed using ONE-Step luciferase assay system: add 50 μl of One-Step Luciferase reagent per well and rock at room temperature for ˜30 minutes. Luminescence was measured using a luminometer (BioTek Synergy™ 2 microplate reader). Compounds of the present invention are active in blockade of hedgehog signalling.

[2] = tested on: C. albicans (ATCC 90028); assay: Minimum inhibitory concentration, in vitro broth microdilution assay (CLSI M27-A2); format: cell-based, Candida albicans; conditions: ATCC 90028, about 50% growth reduction, 2 days at 36° C., range tested 8-0.0078 μg/mL, values given as ranges; for MIC: Candida albicans, ATCC90028, 48 h, read-out: Candida albicans MIC
Procedure, shortened: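 Inoculum of 1×10^3 to 1×10^4 CFU/mL in RPMI-1640+MOPS, exposed to 11 two-fold serial compound concentrations at 2 percent final DMSO, per CLSI M27-A2. After 2 days at 36° C, wells scored visually for growth to give MIC; tested in duplicate.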

[3] = tested on: A. fumigatus; assay: A. fumigatus MIC at 100% growth inhibition (CLSI M38-A2); format: cell-based, Aspergillus fumigatus; conditions: 100% growth inhibition, range tested 8-0.0078 μg/mL, values given as ranges; for MIC: Aspergillus fumigatus, read-out: Aspergillus fumigatus MIC
Description: A. fumigatus MICs were determined at 100% growth inhibition following CLSI guidelines at a concentration range of 8-0.0078 μg/mL (CLSI M38-A2).

CC[C@@H]([C@H](C)O)n1ncn(-c2ccc(N3CCN(c4ccc(-c5ccc(C(F)(F)C(O)(Cn6nccn6)c6cccc(Cl)c6)nc5)cc4)CC3)cc2)c1=O (some centres unmarked) [Example 125]
IC50 [1]: 92 nM
MIC [2]: > 8 µg/mL
MIC [3]: > 8 µg/mL

CC[C@@H]([C@H](C)O)n1ncn(-c2ccc(N3CCN(c4ccc(-c5ccc(C(F)(F)C(O)(Cn6cnnn6)c6ccccc6F)nc5)cc4)CC3)cc2)c1=O (stereo partly drawn) [38(−)]
IC50 [1]: 59 nM
Candida albicans MIC [2]: 0.10 to 1.0 µg/mL
Aspergillus fumigatus MIC [3]: >8 µg/mL

CC[C@@H]([C@H](C)O)n1ncn(-c2ccc(N3CCN(c4ccc(-c5ccc(C(F)(F)C(O)(Cn6ncnc6C)c6cccc(F)c6)nc5)cc4)CC3)cc2)c1=O (single isomer, unassigned; (+)) [85(+)]
IC50 [1]: 253 nM
MIC [2]: 0.1 to 1 µg/mL (≈ 0.133 to 1.33 µM)
MIC [3]: > 8 µg/mL

CC[C@@H]([C@H](C)O)n1ncn(-c2ccc(N3CCN(c4ccc(-c5ccc(C(F)(F)C(O)(Cn6cccn6)c6cccc(Cl)c6)nc5)cc4)CC3)cc2)c1=O (stereo partly drawn) [Example 126, 4-(4-(4-(4-(6-(2-(3-chlorophenyl)-1,1-difluoro-2-hydroxy-3-(1H-pyrazol-1-yl)propyl)pyridin-3-yl)phenyl)piperazin-1-yl)phenyl)-2-((2S,3S)-2-hydroxypentan-3-yl)-2,4-dihydro-3H-1,2,4-triazol-3-one]
IC50 [1]: 190 nM
MIC [2]: 1 to 8 µg/mL (≈ 1.32 to 10.6 µM)
MIC [3]: > 8 µg/mL

CC[C@@H]([C@H](C)O)n1ncn(-c2ccc(N3CCN(c4ccc(-c5ccc(C(F)(F)C(O)(Cn6cnnn6)c6ccc(F)cc6)nc5)cc4)CC3)cc2)c1=O (single isomer, unassigned; (+)) [63(+)]
IC50 [1]: 150 nM
MIC [2]: 0.01 to 0.1 µg/mL (≈ 0.0135 to 0.135 µM)
MIC [3]: 0.062 to 0.25 µg/mL (≈ 0.0837 to 0.337 µM)

N#Cc1ccc(CN2CCN(c3ccc(-c4ccc(C(F)(F)[C@](O)(Cn5cnnn5)c5ccc(F)cc5F)nc4)cc3)CC2=O)cc1 [Example 28, (R)-4-((4-(4-(6-(2-(2,4-difluorophenyl)-1,1-difluoro-2-hydroxy-3-(1H-tetrazol-1-yl)propyl)pyridin-3-yl)phenyl)-2-oxopiperazin-1-yl)methyl)benzonitrile]
IC50 [1]: 580 nM
MIC [2]: 0.0078 to 0.01 µg/mL (≈ 0.0121 to 0.0156 µM)
MIC [3]: > 8 µg/mL

CC[C@@H]([C@H](C)O)n1ncn(-c2ccc(N3CCN(c4ccc(-c5ccc(C(F)(F)C(O)(Cc6nnn[nH]6)c6ccccc6F)nc5)cc4)CC3)cc2)c1=O (stereo partly drawn) [Example 115, 4-(4-(4-(4-(6-(1,1-difluoro-2-(2-fluorophenyl)-2-hydroxy-3-(1H-tetrazol-5-yl)propyl)pyridin-3-yl)phenyl)piperazin-1-yl)phenyl)-2-((2S,3S)-2-hydroxypentan-3-yl)-2,4-dihydro-3H-1,2,4-triazol-3-one]
IC50 [1]: 510 nM
MIC [2]: > 8 µg/mL
MIC [3]: > 8 µg/mL

CC[C@@H]([C@H](C)O)n1ncn(-c2ccc(N3CCN(c4ccc(-c5ccc(C(F)(F)C(O)(Cn6cnnn6)c6cccc(Cl)c6)nc5)cc4)CC3)cc2)c1=O (mixture of isomers) [Example 127, 4-(4-(4-(4-(6-(2-(3-chlorophenyl)-1,1-difluoro-2-hydroxy-3-(1H-tetrazol-1-yl)propyl)pyridin-3-yl)phenyl)piperazin-1-yl)phenyl)-2-((2S,3S)-2-hydroxypentan-3-yl)-2,4-dihydro-3H-1,2,4-triazol-3-one]
IC50 [1]: 20 nM
MIC [2]: 0.1 to 1 µg/mL
MIC [3]: > 8 µg/mL

CC[C@@H]([C@H](C)O)n1ncn(-c2ccc(N3CCN(c4ccc(-c5ccc(C(F)(F)C(O)(Cn6cnc(C(F)(F)F)n6)c6ccccc6F)nc5)cc4)CC3)cc2)c1=O (stereo partly drawn) [106(+)]
IC50 [1]: 310 nM
MIC [2]: > 8 µg/mL
MIC [3]: > 8 µg/mL

CC[C@@H]([C@H](C)O)n1ncn(-c2ccc(N3CCN(c4ccc(-c5ccc(C(F)(F)C(O)(Cn6nccn6)c6ccccc6F)nc5)cc4)CC3)cc2)c1=O (stereo partly drawn) [Example 116, 4-(4-(4-(4-(6-(1,1-difluoro-2-(2-fluorophenyl)-2-hydroxy-3-(2H-1,2,3-triazol-2-yl)propyl)pyridin-3-yl)phenyl)piperazin-1-yl)phenyl)-2-((2S,3S)-2-hydroxypentan-3-yl)-2,4-dihydro-3H-1,2,4-triazol-3-one]
IC50 [1]: 160 nM
MIC [2]: > 8 µg/mL
MIC [3]: > 8 µg/mL

CC[C@@H]([C@H](C)O)n1ncn(-c2ccc(N3CCN(c4ccc(-c5ccc(C(F)(F)[C@](O)(Cn6cnnn6)c6ccc(F)cc6F)nc5)cc4)CC3)cc2)c1=O [Example 20, 4-(4-(4-(4-(6-((R)-2-(2,4-difluorophenyl)-1,1-difluoro-2-hydroxy-3-(1H-tetrazol-1-yl)propyl)pyridin-3-yl)phenyl)piperazin-1-yl)phenyl)-2-((2S,3S)-2-hydroxypentan-3-yl)-2,4-dihydro-3H-1,2,4-triazol-3-one]
IC50 [1]: 190 nM
MIC [2]: 0.0078 to 0.01 µg/mL (≈ 0.0103 to 0.0132 µM)
MIC [3]: 1 to 4 µg/mL (≈ 1.32 to 5.27 µM)

CC[C@@H]([C@H](C)O)n1ncn(-c2ccc(N3CCN(c4ccc(-c5ccc(C(F)(F)C(O)(Cn6cccn6)c6ccccc6F)nc5)cc4)CC3)cc2)c1=O (some centres unmarked) [Example 117]
IC50 [1]: 92 nM
MIC [2]: > 8 µg/mL
MIC [3]: > 8 µg/mL

N#Cc1ccc(N2CCN(c3ccc(-c4ccc(C(F)(F)[C@](O)(Cn5cnnn5)c5ccc(F)cc5F)nc4)cc3)CC2)nc1 [Example 12]
IC50 [1]: 400 nM
MIC [2]: 0.0078 to 0.01 µg/mL (≈ 0.0127 to 0.0162 µM)
MIC [3]: 0.25 to 1 µg/mL (≈ 0.406 to 1.62 µM)

CC[C@@H]([C@H](C)O)n1ncn(-c2ccc(N3CCN(c4ccc(-c5ccc(C(F)(F)C(O)(Cn6cnnn6)c6ccccc6F)nc5)cc4)CC3)cc2)c1=O (stereo partly drawn) [38(+)]
IC50 [1]: 120 nM
Candida albicans MIC [2]: ≤0.0078 to 0.010 µg/mL
Aspergillus fumigatus MIC [3]: 0.062 to 0.25 µg/mL

CC[C@@H]([C@H](C)O)n1ncn(-c2ccc(N3CCN(c4ccc(-c5ccc(C(F)(F)C(O)(Cn6cnnn6)c6cccc(F)c6)nc5)cc4)CC3)cc2)c1=O (single isomer, unassigned; (+)) [64(+)]
IC50 [1]: 160 nM
MIC [2]: 0.01 to 0.1 µg/mL (≈ 0.0135 to 0.135 µM)
MIC [3]: 0.25 to 1 µg/mL (≈ 0.337 to 1.35 µM)

CC[C@@H]([C@H](C)O)n1ncn(-c2ccc(N3CCN(c4ccc(-c5ccc(C(F)(F)C(O)(Cn6cccn6)c6ccc(F)cc6F)nc5)cc4)CC3)cc2)c1=O (stereo partly drawn) [Example 101, 4-(4-(4-(4-(6-(2-(2,4-difluorophenyl)-1,1-difluoro-2-hydroxy-3-(1H-pyrazol-1-yl)propyl)pyridin-3-yl)phenyl)piperazin-1-yl)phenyl)-2-((2S,3S)-2-hydroxypentan-3-yl)-2,4-dihydro-3H-1,2,4-triazol-3-one]
IC50 [1]: 217 nM
MIC [2]: 0.1 to 1 µg/mL (≈ 0.132 to 1.32 µM)
MIC [3]: > 8 µg/mL

N#Cc1ccc(N2CCN(c3ccc(-c4ccc(C(F)(F)C(O)(Cn5cnnn5)C5CC5)nc4)cc3)CC2)cc1 (centres unmarked) [Example 36, 4-(4-(4-(6-(2-cyclopropyl-1,1-difluoro-2-hydroxy-3-(1H-tetrazol-1-yl)propyl)pyridin-3-yl)phenyl)piperazin-1-yl) benzonitrile]
IC50 [1]: 850 nM
MIC [2]: 0.0078 to 0.01 µg/mL (≈ 0.0144 to 0.0184 µM)
MIC [3]: > 8 µg/mL

CC[C@@H]([C@H](C)O)n1ncn(-c2ccc(N3CCN(c4ccc(-c5ccc(C(F)(F)C(O)(Cn6cnnn6)c6ccccc6F)nc5)cc4)CC3)cc2)c1=O (mixture of isomers) [Example 38]
IC50 [1]: 38 nM

CC[C@@H]([C@H](C)O)n1ncn(-c2ccc(N3CCN(c4ccc(-c5ccc(C(F)(F)C(O)(Cn6nccn6)c6ccc(F)cc6F)nc5)cc4)CC3)cc2)c1=O (stereo partly drawn) [Example 107, 4-(4-(4-(4-(6-(2-(2,4-difluorophenyl)-1,1-difluoro-2-hydroxy-3-(2H-1,2,3-triazol-2-yl)propyl)pyridin-3-yl)phenyl)piperazin-1-yl)phenyl)-2-((2S,3S)-2-hydroxypentan-3-yl)-2,4-dihydro-3H-1,2,4-triazol-3-one]
IC50 [1]: 270 nM
MIC [2]: > 8 µg/mL
MIC [3]: > 8 µg/mL

OC(c1ccc(N2CCN(c3ccc(-c4ccc(C(F)(F)[C@](O)(Cn5cnnn5)c5ccc(F)cc5F)nc4)cc3)CC2)cc1F)C(F)(F)F (stereo partly drawn) [Example 5, (2R)-2-(2,4-difluorophenyl)-1,1-difluoro-1-(5-(4-(4-(3-fluoro-4-(2,2,2-trifluoro-1-hydroxyethyl)phenyl)piperazin-1-yl)phenyl)pyridin-2-yl)-3-(1H-tetrazol-1-yl) propan-2-ol]
MIC [2]: 0.0078 to 0.01 µg/mL (≈ 0.0111 to 0.0142 µM)
MIC [3]: 0.25 to 1 µg/mL (≈ 0.354 to 1.42 µM)

OC(c1cn(-c2ccc(N3CCN(c4ccc(-c5ccc(C(F)(F)[C@](O)(Cn6cnnn6)c6ccc(F)cc6F)nc5)cc4)CC3)cn2)nn1)C(F)(F)F (stereo partly drawn) [Example 111, (2R)-2-(2,4-difluorophenyl)-1,1-difluoro-3-(1H-tetrazol-1-yl)-1-(5-(4-(4-(6-(4-(2,2,2-trifluoro-1-hydroxyethyl)-1H-1,2,3-triazol-1-yl)pyridin-3-yl)piperazin-1-yl)phenyl)pyridin-2-yl) propan-2-ol]
MIC [2]: 0.0078 to 0.01 µg/mL (≈ 0.0103 to 0.0132 µM)
MIC [3]: 0.25 to 1 µg/mL (≈ 0.331 to 1.32 µM)
